According to patent US9303009B2, “Migrastatins and uses thereof” (Sloan-Kettering Institute for Cancer Research, priority 2011, dated 2016):

Columns and labels:
[1] = system: lung cancer (H299-GL, H522-GL, H647-GL, A549-GL, H1993, H1075-GL, H1373-GL H1703 cells); assay: toxicity by alamarBlue, lung cancer cell lines; assay type: cell-based; conditions: mean of 8 cell lines
Procedure: Dilutions of DMSO without compound were used as a control. After 18 hrs or 2 days, the cultures were pulsed with 6 μl of alamarBlue® (Invitrogen Inc. Grand Island, N.Y.) and incubated overnight. The alamarBlue® provides a cell growth indicator based on detection of metabolic activity. The assay system incorporates an oxidation-reduction indicator that both fluoresces and changes color in response to chemical reduction of growth medium resulting from cell growth. The fluorescence intensity was measured using a Synergy H1 Microplate Reader (Biotek Inc, Winooski, VT) and a dose-response curve established for IC50 determination.

AC3-TGL cells = assay: human SCLC xenograft model, Example 17; assay type: in vivo; conditions: for tumor growth kinetics at the primary site of injection: all doses
Procedure: Evaluation of the anti-metastatic activity of ME (19) and CME (25) in a human SCLC xenograft model. These cells, in primary and subsequent in vivo passages in NOD/SCID mice, tend to form liver metastases. The tumor cells were stably transduced with a triple-fusion protein reporter construct (AC3-TGL), and then transplanted by subcutaneous injection with matrigel into NOD/SCID IL2R gamma null (NSG) mice.
Starting 1 day prior to the inoculation of tumor cells, groups of mice were treated with ME at doses of 10 mg/kg, 40 mg/kg, or 200 mg/kg, or with CME at 12 mg/kg or 49 mg/kg (note: dosage levels were adjusted to account for differences in molecular weight: 1 mg ME=1.2 mg CME). Control mice were treated with DMSO vehicle. The compounds were administered by i.p. injection every three days, from Day −1 to Day 55 following cell injection (n≧5 mice per group). During this time, tumor burden and metastatic spread were monitored by serial non-invasive bioluminescent imaging (BLI) at Days 14, 23, 30, 40, and 50. At Day 55, the mice were sacrificed and the metastatic spread of tumor cells to the lungs, liver, heart, kidneys, and spleen was assessed by ex-vivo BLI on the removed organs.
For the results depicted in FIGS. 7a-b: AC3-TGL cells were transplanted by subcutaneous ventral injection into NSG mice. Xenografted mice were treated with indicated dosages of CME or ME every 3 days starting 1 day prior to the inoculation of tumor cells: ME 10 mg/kg (ME10, n=5), 40 mg/kg (ME40, n=5), 200 mg/kg (ME200, n=5), CME 12 mg/kg (CME12, n=5), 49 mg/kg (CME49, n=5) and DMSO vehicle (control, n=6). At day 55, the mice were sacrificed. Three mice in the ME200 group died before the end of treatment. Tumor metastasis at endpoint: At day 55, mice were analyzed for metastasis by ex vivo BLI quantifying luciferase activity in the excised lungs, (Lu), liver (Li), heard (H), kidneys (K), and the spleen (S). Measurements for each mouse are presented in FIG. 7a (circles), with the average per group (short line) and expressed as photon flux (flux in photon/sec) in log scale. P-values were obtained using two-tailed Mann-Whitney U-test. Each picture is presented with the same settings (4 min exposure, photon signal, color scale from 3.10^4 (min) to 5.10^6 (max)).
Xenograft Model for Example 17: A human primary SCLC xenograft model was developed in 10-14 weeks old male NSG mice. Primary tumor samples were obtained after patient informed consent under an MSKCC IRB approved protocol. AC3-TGL tumor cells growing as clumps were dissociated into a single-cell suspension by Trypsin/Collagenase IV (Invitrogen) sequential treatment. Xenografts were performed by subcutaneous ventral injection of 500 AC3-TGL cells in serum-free medium mixed with Matrigel (Becton Dickinson).
One day prior to the tumor cell injection, mice were pretreated with either: (1) Migrastatin Ether (ME) at a dose of 10 mg/kg, 40 mg/kg or 200 mg/kg per mouse; (2) Carboxymethyl-ME (CME) at a dose of 12 mg/kg or 49 mg/kg; or (3) DMSO vehicle control (n≧5 mice per group). Drug treatment was delivered by intraperitoneal injection every 3 days starting from day −1 after cell injection to day 55. During this time, the tumor burden and metastatic spread were monitored by bioluminescence imaging (BLI) at day 14, 23, 30, 40, and 50. At day 55 (endpoint), the mice were killed and the metastatic spread of tumor cells to the lungs, liver, heart, kidneys, and spleen was assessed by ex-vivo BLI on the surgically resected organs.

A549 = assay: transwell migration (modified Boyden chamber, serum gradient); assay type: cell-based; conditions: Homo sapiens, 12 hour migration, mean +/- SEM of three experiments, read-out: IC50, inhibition of transwell migration
Procedure: (§1) Migration assay: Cancer cell chemotaxis was performed towards a serum gradient in a modified Boyden chamber consisting of a cell culture insert (6.4 mm diameter, 8-μm pore polyethylene tetraphtalate membrane, [Becton Dickenson]) seated in each well of a 24-well companion plate (Becton Dickinson). Briefly, cancer cells were grown as subconfluent monolayer cultures then starved for 36 hours in serum-free M5 medium. After detachment and dissociation with 5 mM EDTA, single-cell suspensions were prepared by filtration through a 35 μm mesh cell strainer (Becton Dickinson). Cells were counted and a total of 10^5 cells suspended in serum-free medium were seeded into the upper chamber of an insert, then positioned in a 24-well plate, containing medium with or without 10% serum. When used, drugs or DMSO (vehicle) were added to the medium at 0.2% in both chambers. Migration assays were carried out for 12 hours in a humidified incubator at 37° C. with 5% CO2. Cells were then fixed with 3.7% formaldehyde, permeabilized with ice cold methanol and stained with a 0.2% Crystal violet solution. Non-migratory cells on the upper side of the insert were removed with a cotton swab. For quantification, three randomly selected fields on the lower side of the insert were photographed at 4× and 20× magnification using computer-assisted microscopy, and analyzed with CellProfiler2.0 cell image analysis software). The migration in response to the test condition was calculated relative to the DMSO vehicle control.
(§2) This assay provided reproducibly robust data, allowing dose-response studies to be carried out to determine the half maximal inhibitory concentration (IC50). […] Because we noticed a mild toxicity and effects on cell proliferation in the millimolar range, experiments with CME and ME at 1 mM or more were not included for the IC50 calculation.
(§3) Lung Cancer cell lines chemotaxis was performed in cell culture inserts after serum starvation and an overnight preincubation with an incremental logarithmic scale of drug concentration (ME and CME from 10^−3 to 10^−10M). Cancer cell migration in response to a serum gradient was measured after a 12 hour-long incubation in presence of different concentrations of ME or CME in both upper and lower chamber (three wells at each dose). Cells were then fixed and stained with Crystal violet, and photographed. […] Data are expressed as the mean+/−SEM of three independent experiments. Each experiment was performed in triplicate.

H299 = assay: as above; assay type: cell-based; conditions: Homo sapiens, 12 hour migration, mean +/- SEM of three experiments, read-out: IC50, inhibition of transwell migration
Procedure: as §1, §2, §3

| Compound | Estimated lethal doses (LD50) ([1]; 18 h exposure) | Estimated lethal doses (LD50) ([1]; 48 h exposure) | Inhibition factor (IF) of overall metastasis (AC3-TGL cells; 12 mg/kg i.p. every 3 days, day 55) | toxicity (AC3-TGL cells; 12 mg/kg or 49 mg/kg cohorts) | Inhibition factor (IF) of overall metastasis (AC3-TGL cells; 49 mg/kg i.p. every 3 days, day 55) | tumor growth kinetics at the primary site of injection (AC3-TGL cells) | potency relative to ME in inhibiting in vivo metastasis (AC3-TGL cells; at the lowest dosage level) | IC50 (A549) | IC50 (H299) | deaths prior to the study endpoint (AC3-TGL cells; 10 mg/kg group) | Inhibition factor (IF) of overall metastasis (AC3-TGL cells; 10 mg/kg i.p. every 3 days, day 55) | deaths prior to the study endpoint (AC3-TGL cells; 40 mg/kg group) | Inhibition factor (IF) of overall metastasis (AC3-TGL cells; 40 mg/kg i.p. every 3 days, day 55) | deaths prior to the study endpoint (AC3-TGL cells; 200 mg/kg group) | Inhibition factor (IF) of overall metastasis (AC3-TGL cells; 200 mg/kg i.p. every 3 days, day 55, 2 surviving mice) |
| --- | --- | --- | --- | --- | --- | --- | --- | --- | --- | --- | --- | --- | --- | --- | --- |
| CO[C@H]1/C=C/CCCCCOC/C(C)=C\[C@@H](C)[C@@H]1OCC(=O)O [CME, Carboxymethyl migraether] | 553.9 µM | 697.9 µM | 99.3% | no toxicity was observed | 99.8% | did not significantly affect | approximately 4 times | 0.66 ± 0.2 µM | 5.02 ± 1.13 µM | – | – | – | – | – | – |
| CO[C@H]1/C=C/CCCCCOC/C(C)=C\[C@@H](C)[C@@H]1O [ME, migrastatin ether] | – | 639.8 µM | – | – | – | did not significantly affect | – | 1.93 ± 0.41 µM | 8.2 ± 1.75 µM | 2 mice | 96.2% | 2 mice | 99.1% | 3 mice | 99.8% |
